Measured values taken from article PMC10746543, “Design principles for cyclin K molecular glue degraders” (Nature Chemical Biology, 2023).
“And” between values parts separate entries of the source, which are not always exact repeats. Equal entries are not always repeated. Where two headings read alike, the source gives them in different places.

Columns and labels:
[1] = system: cyclin K–eGFP degradation reporter; test: Cyclin K reporter stability analysis (dual-color cyclin K–eGFP reporter); format: cell-based, human; details: for reporter assay signal (normalized): replicates
Summary of the method: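 Values reflect cyclin K–eGFP levels after a 5 h exposure, expressed as the green-to-red fluorescence ratio and scaled to three vehicle-treated controls. Measurements came from HEK293T–Cas9 reporter cells by flow cytometry.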

HEK293T cells = test: Drug sensitivity assay (CellTiter-Glo viability) with or without MLN4924 pretreatment; format: cell-based, human; details: for EC50: Homo sapiens, HEK-293T; for Toxicity rescue: MLN4924-mediated cytotoxicity rescue, 10 µM used where n.d.
Summary of the method: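 First, cells (HEK293T–Cas9, 0.15 × 10^6 ml^−1) are exposed to DMSO or 100 nM MLN4924. Next, drugs follow at 2 h. Finally, CellTiter-Glo is read at day 3 and normalised to DMSO.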

CDK9–cyclin T = target: T1, CDK9–cyclin T (Homo sapiens, UniProt P50750); test: Lanthascreen kinase binding assay, CDK9; details: for Lanthascreen TR-FRET signal (raw ratio), sheet CDK9: duplicates
T1 construct: purchased Thermo Fisher
T1 sequence (P50750 whole entry): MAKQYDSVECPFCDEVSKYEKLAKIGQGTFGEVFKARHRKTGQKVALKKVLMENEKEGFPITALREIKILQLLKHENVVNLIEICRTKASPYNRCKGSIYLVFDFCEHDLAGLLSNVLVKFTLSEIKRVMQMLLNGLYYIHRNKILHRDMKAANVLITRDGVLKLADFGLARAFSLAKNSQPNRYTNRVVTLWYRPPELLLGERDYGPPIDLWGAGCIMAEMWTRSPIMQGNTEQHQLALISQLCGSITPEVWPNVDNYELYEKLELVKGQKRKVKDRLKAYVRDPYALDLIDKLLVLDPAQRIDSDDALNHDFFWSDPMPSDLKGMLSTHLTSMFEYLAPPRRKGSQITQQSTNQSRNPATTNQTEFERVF
T1 sequence (O60563 whole entry partner): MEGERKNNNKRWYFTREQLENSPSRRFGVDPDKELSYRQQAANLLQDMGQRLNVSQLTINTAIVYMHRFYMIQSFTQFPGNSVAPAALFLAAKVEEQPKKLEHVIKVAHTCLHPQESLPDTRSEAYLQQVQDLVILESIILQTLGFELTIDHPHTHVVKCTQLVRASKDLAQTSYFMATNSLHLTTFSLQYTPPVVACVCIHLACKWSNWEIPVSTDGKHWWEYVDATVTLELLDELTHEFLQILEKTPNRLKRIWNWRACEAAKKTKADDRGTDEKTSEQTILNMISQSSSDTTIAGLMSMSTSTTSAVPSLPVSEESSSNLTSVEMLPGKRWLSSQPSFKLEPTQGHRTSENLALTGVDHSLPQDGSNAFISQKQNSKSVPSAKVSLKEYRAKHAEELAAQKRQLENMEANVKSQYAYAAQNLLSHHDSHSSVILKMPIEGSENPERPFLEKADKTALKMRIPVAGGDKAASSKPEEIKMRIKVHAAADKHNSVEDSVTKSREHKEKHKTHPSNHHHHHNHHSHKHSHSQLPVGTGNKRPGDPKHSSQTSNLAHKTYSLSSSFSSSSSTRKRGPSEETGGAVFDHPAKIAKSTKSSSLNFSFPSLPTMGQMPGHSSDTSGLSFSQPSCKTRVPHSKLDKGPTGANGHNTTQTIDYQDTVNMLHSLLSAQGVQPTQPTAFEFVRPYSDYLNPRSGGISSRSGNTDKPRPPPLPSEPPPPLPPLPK
Method: Lanthascreen experiments were performed using commercially available reagents (Thermo Fisher) and according to the manufacturer’s instructions.

cyclin K = test: Label-free quantitative mass spectrometry in MDA-MB-231 cells, cyclin K; format: cell-based, human; details: for CCNK peptide count (DMSO-normalised): normalised to DMSO = 1, replicate values
Summary of the method: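 MDA-MB-231 cells treated 5 h with 1 µM cyclin K degrader or DMSO. Lysates digested with LysC and trypsin, then analysed by label-free diaPASEF LC-MS on a TimsTOF Pro2 with directDIA search and MS1 precursor quantification. Protein abundances scaled and analysed with limma.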

[2] = source data sheet correlations, read-out: DC50
[3] = Supplementary Table 2, HEK293T viability, 72 h, compound alone, read-out: Cellular assays EC50
[4] = Supplementary Table 2, read-out: Lanthascreen IC50 [nM] CDK9
[5] = individual replicates, sheet EDF7
[6] = label-free quantitative MS, replicate values

Cc1cccc(Nc2nc(CC(=O)Nc3ncc(C)s3)cs2)n1 [HQ461] gave a DC50 [1, 2] of 493 nM, an EC50 (HEK293T cells; [3]) of 1300 nM and a Toxicity rescue (HEK293T cells; Supplementary Table 2) of 159%. For the same molecule, the IC50 (CDK9–cyclin T; Lanthascreen, read-out: CDK9 inhibition) was > 10000 nM, the IC50 (CDK9–cyclin T; [4]) was > 10000 nM and the “Lanthascreen TR-FRET signal (raw ratio), sheet CDK9” value (CDK9–cyclin T; compound 0.038147 nM, second titration set (r13)) was 0.01409 and 0.01416. For the same molecule, the “Lanthascreen TR-FRET signal (raw ratio), sheet CDK9” value (CDK9–cyclin T; compound 0.152588 nM, second titration set (r13)) was 0.01468 and 0.01413, the “Lanthascreen TR-FRET signal (raw ratio), sheet CDK9” value (CDK9–cyclin T; compound 0.610352 nM, second titration set (r13)) was 0.01464 and 0.01471 and the “Lanthascreen TR-FRET signal (raw ratio), sheet CDK9” value (CDK9–cyclin T; compound 1.02544 nM, first titration set (r1)) was 0.013 and 0.01376. For the same molecule, the “Lanthascreen TR-FRET signal (raw ratio), sheet CDK9” value (CDK9–cyclin T; compound 3.15521 nM, first titration set (r1)) was 0.01501 and 0.01445, the “Lanthascreen TR-FRET signal (raw ratio), sheet CDK9” value (CDK9–cyclin T; compound 9.46563 nM, first titration set (r1)) was 0.01436 and 0.01453 and the “Lanthascreen TR-FRET signal (raw ratio), sheet CDK9” value (CDK9–cyclin T; compound 9.76563 nM, second titration set (r13)) was 0.01408 and 0.01448. For the same molecule, the “Lanthascreen TR-FRET signal (raw ratio), sheet CDK9” value (CDK9–cyclin T; compound 31.5521 nM, first titration set (r1)) was 0.01309 and 0.01275, the “Lanthascreen TR-FRET signal (raw ratio), sheet CDK9” value (CDK9–cyclin T; compound 39.0625 nM, second titration set (r13)) was 0.01393 and 0.01389 and the “Lanthascreen TR-FRET signal (raw ratio), sheet CDK9” value (CDK9–cyclin T; compound 99.3891 nM, first titration set (r1)) was 0.01397 and 0.01502. The “Lanthascreen TR-FRET signal (raw ratio), sheet CDK9” value (CDK9–cyclin T; compound 156.25 nM, second titration set (r13)) was 0.01402 and 0.0137, the “Lanthascreen TR-FRET signal (raw ratio), sheet CDK9” value (CDK9–cyclin T; compound 315.521 nM, first titration set (r1)) was 0.01247 and 0.01162 and the “Lanthascreen TR-FRET signal (raw ratio), sheet CDK9” value (CDK9–cyclin T; compound 625 nM, second titration set (r13)) was 0.01303 and 0.01336. For the same molecule, the “Lanthascreen TR-FRET signal (raw ratio), sheet CDK9” value (CDK9–cyclin T; compound 2500 nM, second titration set (r13)) was 0.01244 and 0.01203, the “Lanthascreen TR-FRET signal (raw ratio), sheet CDK9” value (CDK9–cyclin T; compound 3155.21 nM, first titration set (r1)) was 0.007103 and 0.007563 and the “Lanthascreen TR-FRET signal (raw ratio), sheet CDK9” value (CDK9–cyclin T; compound 10000 nM, second titration set (r13)) was 0.01094 and 0.01086. For the same molecule, the “Lanthascreen TR-FRET signal (raw ratio), sheet CDK9” value (CDK9–cyclin T; compound 10002 nM, first titration set (r1)) was 0.01268 and 0.01049, the “cyclin K abundance (label-free MS)” value (cyclin K; [5]) was 622.336 and 691.814 and the “cyclin K abundance (label-free MS)” value (cyclin K; [6]) was 622.336 and 691.814. For the same molecule, the “CCNK peptide count (DMSO-normalised)” value (cyclin K) was 0.34 and 0.3848 and the “average CCNK peptide count” value (cyclin K; sheet EDF7) was 657.075.

For CCC(CO)Nc1nc(NCc2ccc(-c3ccccn3)cc2)c2ncn(C(C)C)c2n1 (centres unmarked) [CR8, reference compound], the “reporter assay signal (normalized)” value ([1]; 2 nM) was 0.8972 and 0.9042, the “reporter assay signal (normalized)” value ([1]; 3 nM) was 0.9215 and 0.8933 and the “reporter assay signal (normalized)” value ([1]; 4.5 nM) was 0.9042 and 0.8823. The “reporter assay signal (normalized)” value ([1]; 7.68 nM) was 0.8744 and 0.8637, the “reporter assay signal (normalized)” value ([1]; 22.8 nM) was 0.7879 and 0.7853 and the “reporter assay signal (normalized)” value ([1]; 34.2 nM) was 0.7383 and 0.7347. The “reporter assay signal (normalized)” value ([1]; 51.3 nM) was 0.6912 and 0.706, the “reporter assay signal (normalized)” value ([1]; 77 nM) was 0.6707 and 0.6773 and the “reporter assay signal (normalized)” value ([1]; 260 nM) was 0.5992 and 0.6647. The “reporter assay signal (normalized)” value ([1]; 390 nM) was 0.6455 and 0.6368, the “reporter assay signal (normalized)” value ([1]; 585 nM) was 0.6031 and 0.6411 and the “reporter assay signal (normalized)” value ([1]; 877 nM) was 0.5764 and 0.6073. The “reporter assay signal (normalized)” value ([1]; 1970 nM) was 0.6031 and 0.6571, the “reporter assay signal (normalized)” value ([1]; 2960 nM) was 0.6526 and 0.6453 and the “reporter assay signal (normalized)” value ([1]; 4440 nM) was 0.6125 and 0.6655. The “reporter assay signal (normalized)” value ([1]; 6670 nM) was 0.6345 and 0.6267, the “reporter assay signal (normalized)” value ([1]; 10000 nM) was 0.6031 and 0.6495 and the “cyclin K reporter degradation, result in words” value ([1]; HEK293T) was “potent degraders”. For the same molecule, the DC50 ([1]; Supplementary Fig. 4, HEK293T cycKeGFP reporter, 5h, n=2, read-out: DC50 printed on reporter plot) was 15 nM, the DC50 [1, 2] was 24 nM and the “viability assay signal (normalized)” value (HEK293T cells; 2 nM, + MLN4924) was 1.107 and 1.008. For the same molecule, the “viability assay signal (normalized)” value (HEK293T cells; 2 nM, without MLN4924) was 1.041 and 1.037, the “viability assay signal (normalized)” value (HEK293T cells; 4.69 nM, + MLN4924) was 1.279 and 1.055 and the “viability assay signal (normalized)” value (HEK293T cells; 4.69 nM, without MLN4924) was 1.03 and 1.007. For the same molecule, the “viability assay signal (normalized)” value (HEK293T cells; 11 nM, + MLN4924) was 1.009 and 1.091, the “viability assay signal (normalized)” value (HEK293T cells; 11 nM, without MLN4924) was 1.0171 and 1.083 and the “viability assay signal (normalized)” value (HEK293T cells; 25.7 nM, + MLN4924) was 1.13 and 1.18. For the same molecule, the “viability assay signal (normalized)” value (HEK293T cells; 25.7 nM, without MLN4924) was 0.9174 and 1.057, the “viability assay signal (normalized)” value (HEK293T cells; 141 nM, + MLN4924) was 1.076 and 1.102 and the “viability assay signal (normalized)” value (HEK293T cells; 141 nM, without MLN4924) was 0.4857 and 0.5122. The “viability assay signal (normalized)” value (HEK293T cells; 331 nM, + MLN4924) was 0.8705 and 0.873, the “viability assay signal (normalized)” value (HEK293T cells; 331 nM, without MLN4924) was 0.3951 and 0.3542 and the “viability assay signal (normalized)” value (HEK293T cells; 4270 nM, + MLN4924) was 0.4449 and 0.4383. For the same molecule, the “viability assay signal (normalized)” value (HEK293T cells; 4270 nM, without MLN4924) was 0.4332 and 0.4197, the “viability assay signal (normalized)” value (HEK293T cells; 10000 nM, + MLN4924) was 0.4134 and 0.5002 and the “viability assay signal (normalized)” value (HEK293T cells; 10000 nM, without MLN4924) was 0.424 and 0.4316. For the same molecule, the EC50 (HEK293T cells; Supplementary Fig. 5, HEK293T, CellTiter Glo, 72h, pre-treatment with 100 nM MLN4924, read-out: Viability EC50, with MLN4924) was 519 nM, the EC50 (HEK293T cells; Supplementary Fig. 5, HEK293T, CellTiter Glo, 72h, read-out: Viability EC50, no MLN4924) was 78 nM and the EC50 (HEK293T cells; [3]) was 159 nM. For the same molecule, the Toxicity rescue (HEK293T cells; Supplementary Table 2) was 342%, the IC50 (CDK9–cyclin T; [4]) was 44 nM and the “cyclin K abundance (label-free MS)” value (cyclin K; [5]) was 122.337 and 71.6906. For the same molecule, the “cyclin K abundance (label-free MS)” value (cyclin K; [6]) was 122.337 and 71.6906, the “CCNK peptide count (DMSO-normalised)” value (cyclin K) was 0.06684 and 0.03988 and the “average CCNK peptide count” value (cyclin K; sheet EDF7) was 97.0136.
